In patent US7264935B2, “Potassium-dependent sodium-calcium exchanger” (Astellas Pharma Inc., priority 2002, dated 2007):

How the values were obtained:
Type in all cases: cell-based
[1] = biological target: T1, novel potassium-dependent sodium-calcium exchanger consisting of the amino acid sequence of SEQ ID NO: 2 (Homo sapiens, UniProt Q8NFF2); experiment: 45Ca uptake screening for inhibition of potassium-dependent sodium-calcium exchange activity in stable-expression Dede cells (SEQ ID NO: 2); conditions: exchanger of SEQ ID NO: 2; conditions of Example 6
T1 construct: expressed in transfected cells
T1 sequence (Q8NFF2 39-622): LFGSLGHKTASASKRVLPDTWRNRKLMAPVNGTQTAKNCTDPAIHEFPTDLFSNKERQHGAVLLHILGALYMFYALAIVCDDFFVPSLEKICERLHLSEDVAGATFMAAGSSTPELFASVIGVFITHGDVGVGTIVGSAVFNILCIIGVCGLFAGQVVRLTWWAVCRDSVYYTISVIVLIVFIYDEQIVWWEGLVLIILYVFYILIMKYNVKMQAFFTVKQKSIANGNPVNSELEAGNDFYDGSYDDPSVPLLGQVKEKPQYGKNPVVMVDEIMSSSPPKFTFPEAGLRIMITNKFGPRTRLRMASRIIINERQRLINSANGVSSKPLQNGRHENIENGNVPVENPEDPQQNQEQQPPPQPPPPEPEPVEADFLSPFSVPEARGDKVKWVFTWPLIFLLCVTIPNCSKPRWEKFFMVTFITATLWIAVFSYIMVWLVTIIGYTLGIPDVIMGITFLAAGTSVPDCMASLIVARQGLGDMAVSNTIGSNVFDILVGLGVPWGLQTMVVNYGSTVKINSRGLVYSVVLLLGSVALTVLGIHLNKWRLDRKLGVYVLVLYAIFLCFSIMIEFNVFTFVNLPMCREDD
Procedure: (§1) Sodium was incorporated into cells by changing the medium to an extracellular solution containing monensin [i.e., a solution containing 0.01 mmol/L monensin, 1 mmol/L ouabain, 146 mmol/L NaCl, 4 mmol/L KCl, 0.1 mmol/L CaCl2, 2 mmol/L MgCl2, 10 mmol/L glucose, 0.1% bovine serum albumin, and 10 mmol/L HEPES-Tris (pH=7.4)] and incubating the cells at 37° C. for 30 minutes. […]
(§2) The treated cells were washed with a washing solution containing 120 mmol/L choline chloride, 10 mmol/L LaCl3, and 10 mmol/L HEPES-Tris (pH=7.4) to remove calcium ions not incorporated, and then an intracellular calcium ion radioactivity was measured and analyzed by a liquid scintillation counter. In the HEK293 cells, Dede cells, or CHO-dhfr^− cells expressing the polypeptide consisting of the amino acid sequence of SEQ ID NO: 2 or 4, a higher radioactivity of approximately two times that obtained in the case of the extracellular solution A was measured when using the extracellular solution B (extracellular solution in which sodium was replaced with choline). Further, higher radioactivities of approximately five times and approximately ten times that obtained in the case of the extracellular solution A were measured when using the extracellular solutions C and D (extracellular solution containing potassium), respectively. […]

[2] = test system: human peripheral polymorphonuclear leukocytes (PMNs); experiment: fMLP-stimulated migration test of PMNs in Transwell chemotaxis chamber; conditions: for Number of migrating cells (relative value): 100 nmol/L fMLP, 37° C., 1 hour, DMSO = 100, average ± SD of three experiments; for migration of PMNs (result in words): 10, 30 and 100 μmol/L, fMLP-stimulated
Procedure: The compounds obtained in Example 6 were evaluated using human peripheral polymorphonuclear leukocytes (PMNs). A blood sample was obtained by collecting blood from a healthy adult. A ficoll solution for separation (mono-poly resolving medium; Dainippon Pharmaceutical) was poured into each centrifuge tube, and a fresh blood component was laid on the ficoll solution. Centrifugation was carried out at 400×g at room temperature for 30 minutes to separate the upper layer (monocytes), the intermediate layer (PMNs), and the precipitate (erythrocytes). Each layer was collected in such a way that they were not mixed with each other, suspended in a phosphate buffered saline (PBS), and recentrifuged. Each collected layer was suspended in an RPMI1640 medium containing 0.2% bovine serum albumin (BSA), and used in the following experiment after counting the number of cells. A portion of the resulting PMN component was stained by a hematoxylin and eosin stain to confirm that neutrophils (approximately 95%) and eosinophils (approximately 5%) were contained.
A migration test was carried out using a 24-well disposable chemotaxis chamber Transwell 3 μm; Corning). Each test solution in which compound A or B (final concentration=10 μmol/L, 30 μmol/L, and 100 μmol/L) were contained in a medium (0.2% BSA, RPMI1640 medium) containing 100 nmol/L formylmethionyl-leucinyl-phenylalanine (fMLP) was prepared, and 1 mL of each test solution was added to each of the lower wells. The collected PMNs were added to each of the upper wells (2.0×10^6 cells/well; 0.2 mL) and incubated at 37° C. for 1 hour. The numbers of cells which migrated to the lower wells were counted by a hemacytometer. The test was independently repeated three times.
Each value shown in Table 1 is a relative value when the value obtained in the case of using DMSO instead of the test compounds is regarded as 100. Further, each value shown in Table 1 is an average and a standard deviation (SD) on the basis of three independent experiments.

[3] = biological target: T2, novel potassium-dependent sodium-calcium exchanger consisting of the amino acid sequence of SEQ ID NO: 4 (Homo sapiens, UniProt Q8NFF2); experiment: 45Ca uptake screening for inhibition of potassium-dependent sodium-calcium exchange activity in stable-expression Dede cells (SEQ ID NO: 4); conditions: exchanger of SEQ ID NO: 4; conditions of Example 6
T2 construct: expressed in transfected cells
T2 sequence (Q8NFF2 39-603 isoform Q8NFF2-3): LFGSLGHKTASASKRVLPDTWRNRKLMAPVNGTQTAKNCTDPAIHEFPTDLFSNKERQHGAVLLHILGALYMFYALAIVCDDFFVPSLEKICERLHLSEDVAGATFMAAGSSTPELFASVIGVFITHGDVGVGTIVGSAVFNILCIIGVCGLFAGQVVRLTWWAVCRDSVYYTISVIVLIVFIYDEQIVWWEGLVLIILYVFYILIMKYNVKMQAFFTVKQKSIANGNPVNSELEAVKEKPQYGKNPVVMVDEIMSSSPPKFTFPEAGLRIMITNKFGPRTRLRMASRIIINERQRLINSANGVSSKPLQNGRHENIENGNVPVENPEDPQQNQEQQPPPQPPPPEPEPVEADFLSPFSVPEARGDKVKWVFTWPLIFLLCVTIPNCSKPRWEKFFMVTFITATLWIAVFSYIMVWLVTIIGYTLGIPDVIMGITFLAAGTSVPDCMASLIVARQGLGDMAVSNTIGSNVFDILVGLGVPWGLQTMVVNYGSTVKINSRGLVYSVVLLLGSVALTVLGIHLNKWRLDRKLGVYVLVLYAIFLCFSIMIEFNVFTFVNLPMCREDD
Procedure: as §1, §2

SMILES: CS(=O)(=O)O.N=C(N)SCCc1ccc(OCc2ccc([N+](=O)[O-])cc2)cc1 [compound A, 2-[2-[4-(4-nitrobenzyloxy)phenyl]ethyl]isothiourea methanesulfonate]
- IC50 [1]: 15.8 µM
- Number of migrating cells (relative value) ([2]; 10 μmol/L compound): 78.18 ± 25.93
- Number of migrating cells (relative value) ([2]; 30 μmol/L compound): 29.50 ± 26.16
- Number of migrating cells (relative value) ([2]; 100 μmol/L compound): 16.84 ± 10.78
- migration of PMNs (result in words) [2]: inhibited the migration of PMNs dose-dependently
- IC50 [3]: 35 µM

SMILES: N/C(=N\C(=O)c1nc(Cl)c(N)nc1N)NCc1ccc(Cl)c(Cl)c1 [compound B, 3′,4′-dichlorobenzamil]
- IC50 [1]: 20.2 µM
- Number of migrating cells (relative value) ([2]; 10 μmol/L compound): 100.68 ± 7.27
- Number of migrating cells (relative value) ([2]; 30 μmol/L compound): 72.90 ± 15.85
- Number of migrating cells (relative value) ([2]; 100 μmol/L compound): 44.58 ± 32.82
- migration of PMNs (result in words) [2]: inhibited the migration of PMNs dose-dependently
- IC50 [3]: 58.9 µM
